One assay concerns 3T3-L1 adipocytes. As to the kind of experiment: Glucose uptake in transformed 3T3-L1 adipocytes (colourometric glucose oxidase method). In kind it is cell-based. Conditions: for glucose uptake over a 3 hour culture period: 3T3-L1 adipose cells; for Glucose conc.: glucose remaining in the media after 3 hour exposure to the cells; for Glucose conc. / Glucose Uptake: media containing 8 mM glucose; for Glucose Uptake: glucose uptake from the media after 3 hour exposure; for % uptake: relative to DMSO vehicle = 100.00, 3 hour glucose uptake. The method, then: 3T3-L1 cells were transformed in culture using modified DMEM differentiation media supplemented with insulin, dexametasone and isobutylmethylxanthine and cultured for 3 days. The transformed 3T3-L1 adipocytes were then cultured for a further 5 days in modified DMEM supplemented with 10% FCS before being exposed to insulin, metformin and compounds of the present invention (see Table 1). Glucose uptake over a three (3) hour period was determined after the 5 days of treatment using a colourometric glucose oxidase method (Biovision Inc, USA).
The glucose concentration column represents the glucose concentration remaining in the media following three (3) hour exposure to the cells. The glucose uptake column represents glucose uptake from the media after a 3 hour exposure. SD represents the standard deviation. The percentage increases calculated from the relevant solvent vehicle and the P=values are reflected in the last two columns respectively.

In the next assay the test system is Chang cells. As to the kind of experiment: 2-deoxy-[3H]-D-glucose uptake assay. The assay is classed as cell-based. The settings on record: Chang cell cultures, 3 hrs exposure. The procedure:
The glucose uptake of RX-1 and selected analogues after administration of test compounds to Chang cell cultures were determined in an operating protocol for the 2-deoxy-[^3H]-D-glucose. The protocol, which is described in more detail below, has been designed to test for the RX-1 (and RX-1 analogues) mediated glucose uptake. In Table the EC50 values for the uptake for RX-1 and representative analogues is shown.
Stock solutions of the RX-1 analogues supplied in cryo vials (DrugMode) was prepared by diluting the compound with […] sterile tissue culture grade water. This will yield a 5 mM stock solution. If the analogue […] an additional 50 μl methanol will be added (this will be recorded clearly on the log sheet). This will yield a 4 mM stock solution. Stock solutions will be kept on ice at all times and analogues will be stored in 20 μl aliquots at −80 C for subsequent use. Tubes that have been thawed will be clearly marked on the label.
RX-1 (10 μM) Positive Control Solution • To prepare a 10 μM RX-1 solution as positive control. Add 30 μl to 2970 μl modified DMEM media supplemented with 8 mM glucose.
RX-1 Analogue (31.6 μM) Test Solutions • To prepare a 31.6 μM RX-1 analogue test solution. Add 19 μl of the 5 mM to 2981 μl modified DMEM media supplemented with 8 mM glucose. To prepare a 31.6 μM RX-1 analogue test solution from a 4 mM stock solution, add 24 μl to 2976 μl modified DMEM media supplemented with 8 mM glucose.
Cell Seeding in 24-Well Plates • Chang cells are cultured according to procedures described in MRC cell culture SOPs: TC-B2a Thawing of cells and TC-B1a Cell line maintenance—general principles. Make sure cells are in the log phase (i.e. <70% confluence) and less than 20 passages. • Harvest cells using 0.25% (w/v) Trypsin/0.53 mM EDTA solution. • Count cells and resuspend to 30 000 cells/ml (Chang cell seeding density for 24-well plate=30 000 cells/ml) in EMEM (with pyruvate and NEAA, but without L-glutamate (Lonza, USA) containing 10% FBS (Gibco, UK) and pipette 1 ml/well cell suspension to a 24-well plate corresponding to 30 000 cells/well.
• after 3 days of cell growth, aspirate medium • wash cells once with pre-warmed DPBS at 37° C. • add 500 μl of pre-warmed 37° C. DMEM/0.1% BSA (without phenol red, glucose and pyruvate) to serum starve cells to remove residual glucose and FBS • incubate at 37° C. in humidified air and 5% CO2 for 30 min • aspirate DMEM/0.1% BSA (without phenol red, glucose and pyruvate) • Prepare test dilutions as specified in the plate layout (see below) • add 500 μl pre-warmed 37° C. of test dilution per well according to plate layout • incubate at 37° C. in humidified air and 5% CO2 for 3 hrs • remove test medium and wash cells once with DPBS (37° C.) • add 250 μl of test medium containing 0.5 μCi/ml ^3H-2-DOG to each well use (0.5 μl ^3H to 1 ml medium) • Incubate cells at 37° C. in humidified air and 5% CO2 for 15 min • Aspirate medium • To stop the reaction, wash cells twice with ice-cold DPBS • Aspirate DPBS and ensure that wells are as dry as possible • Lyse cells by adding 1 ml of 0.3N NaOH/1% SDS and incubate at 37° C. for at least 45 min • Mix cell lysate thoroughly before subsequent use in LSC and Bradford protein determination

These results are taken from US10174065B2, “Antidiabetic enolic glucoside of phenylpyruvic acid” (ZADEC APS, priority 2010, dated 2019).

`COC(=O)/C(=C/c1ccccc1)O[C@@H]1O[C@H](COC(C)=O)[C@@H](OC(C)=O)[C@H](OC(C)=O)[C@H]1OC(C)=O` [RX-1 triacetate, (2R,3R,4S,5R,6S)-2-(Acetoxymethyl)-6-((Z)-3-methoxy-3-oxo-1-phenylprop-1-en-2-yloxy)tetrahydro-2H-pyran-3,4,5-triyl triacetate]: in the assay on 3T3-L1 adipocytes, the “glucose uptake over a 3 hour culture period” value is “significantly increased”, the Glucose conc. stood at 2.92 nM/ul, the “Glucose Uptake” value is 3.05 nM/ul and the “% uptake” value is 130.78%.
In the assay on Chang cells, `O=C(O)/C(=C/c1ccccc1Cl)O[C@H]1O[C@@H](CO)[C@@H](O)[C@@H](O)[C@@H]1O` [RX-21, (Z)-3-(2-Chlorophenyl)-2-(((2R,3S,4R,5S,6S)-3,4,5-tri hydroxy-6-(hydroxymethyl)tetrahydro-2H-pyran-2-yl)oxy)acrylic acid] gave an EC50 of 286 µM.
Turning to `CN(C)C(=N)N=C(N)N` [Metformin, reference compound], in the assay with 3T3-L1 adipocytes, the Glucose conc. amounted to 3.27 nM/ul, the “Glucose Uptake” value was 2.73 nM/ul and the “% uptake” value was determined as 117.14%.
For the molecule `O=C(O)/C(=C/c1c(F)cccc1Cl)O[C@H]1O[C@@H](CO)[C@@H](O)[C@@H](O)[C@@H]1O` [RX-16, (Z)-3-(2-Chloro-6-fluorophenyl)-2-(((2R,3S,4R,5S,6S)-3,4,5-trihydroxy-6-(hydroxymethyl)tetrahydro-2H-pyran-2-yl)oxy)acrylic acid], the EC50 in the assay with Chang cells amounted to 6.99 µM.
As for `O=C(O)/C(=C/c1ccccc1F)O[C@H]1O[C@@H](CO)[C@H](O)[C@@H](O)[C@@H]1O` [RX-4, (Z)-3-(2-Fluorophenyl)-2-(((2R,3S,4R,5R,6S)-3,4,5-trihydroxy-6-(hydroxymethyl)tetrahydro-2H-pyran-2-yl)oxy)acrylic acid], in the assay on Chang cells, a half-maximal response (EC50) required 80.8 µM. This EC50 lies about 12-fold higher than the previous one.
`O=C(O)/C(=C/c1cccc(C(F)(F)F)c1)O[C@H]1O[C@@H](CO)[C@@H](O)[C@@H](O)[C@@H]1O` [RX-10, (Z)-3-(3-(Trifluoromethyl)phenyl)-2-(((2R,3S,4R,5S,6S)-3,4,5-trihydroxy-6-(hydroxymethyl)tetrahydro-2H-pyran-2-yl)oxy)acrylic acid] returned an EC50 in the assay with Chang cells of 105 µM.
Same read-out and setting: next, `Cc1cccc(/C=C(\O[C@H]2O[C@@H](CO)[C@@H](O)[C@@H](O)[C@@H]2O)C(=O)O)c1` [RX-18, (Z)-3-(m-Tolyl)-2-(((2R,3S,4R,5S,6S)-3,4,5-trihydroxy-6-(hydroxymethyl)tetrahydro-2H-pyran-2-yl)oxy)acrylic acid]: 9.5 µM.
Consider `COC(=O)/C(=C/c1ccccc1)O[C@@H]1O[C@H](CO)[C@@H](O)[C@H](O)[C@H]1O` [RX-1 acrylate, (Z)-Methyl 3-phenyl-2-((2S,3R,4S,5S,6R)-3,4,5-trihydroxy-6-(hydroxymethyl)tetra hydro-2H-pyran-2-yloxy)acrylate], for which, in the assay on 3T3-L1 adipocytes, the “glucose uptake over a 3 hour culture period” value was “significantly increased”, the Glucose conc. was found to be 2.82 nM/ul, the “Glucose Uptake” value is listed as 3.16 nM/ul and the “% uptake” value is 135.53%.
In the assay with Chang cells, `O=C(O)/C(=C/c1cccc(C(F)(F)F)c1)O[C@H]1O[C@@H](CO)[C@H](O)[C@@H](O)[C@@H]1O` [RX-20, (Z)-3-(3-(Trifluoromethyl)phenyl)-2-(((2R,3S,4R,5R,6S)-3,4,5-trihydroxy-6-(hydroxymethyl)tetrahydro-2H-pyran-2-yl)oxy)acrylic acid] yielded an EC50 of 5.7 µM.
Same read-out and setting: next, `O=C(O)/C(=C/c1ccccc1[N+](=O)[O-])O[C@H]1O[C@@H](CO)[C@H](O)[C@@H](O)[C@@H]1O` [RX-2, (Z)-3-(2-Nitrophenyl)-2-(((2R,3S,4R,5R,6S)-3,4,5-trihydroxy-6-(hydroxymethyl)tetrahydro-2H-pyran-2-yl)oxy)acrylic acid]: 9.35 µM; `Cc1cccc(/C=C(\O[C@H]2O[C@@H](CO)[C@H](O)[C@@H](O)[C@@H]2O)C(=O)O)c1` [RX-19, (Z)-3-(m-Tolyl)-2-(((2R,3S,4R,5R,6S)-3,4,5-trihydroxy-6-(hydroxymethyl)tetrahydro-2H-pyran-2-yl)oxy)acrylic acid]: 181 µM.
Insulin: in the assay with 3T3-L1 adipocytes, the Glucose conc. is 2.86 nM/ul, the “Glucose Uptake” value is recorded as 3.13 nM/ul and the “% uptake” value is given as 134.03%.
Turning to `O=C(O)/C(=C/c1cccc(F)c1)O[C@H]1O[C@@H](CO)[C@@H](O)[C@@H](O)[C@@H]1O` [RX-5, (Z)-3-(3-Fluorophenyl)-2-(((2R,3S,4R,5S,6S)-3,4,5-trihydroxy-6-(hydroxymethyl)tetrahydro-2H-pyran-2-yl)oxy)acrylic acid], the EC50 with Chang cells was 114 µM.
